The target of data set [1] is T1, purified recombinant HIV RT (Human immunodeficiency virus type 1 group M subtype B, UniProt P04585).
T1 construct: purified recombinant HIV RT; purchased Amersham, Arlington Heights, Ill; (Quan-T-RT system)
Description: Purified RT assay, cell-free Quan-T-RT system (scintillation proximity). The format is biochemical. As to conditions: IC50 rRT, Table 2; recombinant HIV RT. Here is the method: The synthesized compounds were tested for RT inhibitory activity (IC50 [rRT]) against purified recombinant HIV RT using the cell-free Quan-T-RT system (Amersham, Arlington Heights, Ill.), which utilizes the scintillation proximity assay principle as decribed in Bosworth, et al., 1989, Nature 341:167-168. In the assay, a DNA/RNA template is bound to SPA beads via a biotin/strepavidin linkage. The primer DNA is a 16-mer oligo(T) which has been annealed to a poly(A) template. The primer/template is bound to a strepavidin-coated SPA bead.
^3 H-TTP is incorporated into the primer by reverse transcription. In brief, ^3 H-TTP, at a final concentration of 0.5 μCi/sample, was diluted in RT assay buffer (49.5 mM Tris-Cl, pH 8.0, 80 mM KCl, 10 Mm MgCl2, 10 mM DTT, 2.5 mM EGTA, 0.05% Nonidet-P-40), and added to annealed DNA/RNA bound to SPA beads. The compound being tested was added to the reaction mixture at 0.001 μM-100 μM concentrations. […] The reaction was stopped by addition of 0.2 ml of 120 mM EDTA. The samples were counted in an open window using a Beckman LS 7600 instrument and IC50 values were calculated by comparing the measurements to untreated samples.
(In general: SPA uses beads or plates that emit light when radiolabelled molecules are held near them.)

Data set [2] concerns HIV-1 strain HTLVIIIB
Description: Inhibition of replication of HIV-1 strain HTLVIIIB in PBMC (p24 antigen EIA). Format: cell-based. As to conditions: Human immunodeficiency virus 1, IIIB; inhibition of p24 antigen production in PBMC; read-out: IC50 HTLV IIIB. As to the method:
(§1) In addition, the anti-HIV activity of the compounds was measured by determining their ability to inhibit the replication of the HIV-1 strains HTLVIIIB, RT-MDR, A17, and A17 variant in peripheral blood mononuclear cells (PBMC) from healthy volunteer donors, using the method described in Uckun et.al., 1998, Antimicrobial Agents and Chemotherapy 42:383.
(§2) Normal human peripheral blood mononuclear cells (PBMNC) from HIV-negative donors were cultured 72 hours in RPMI 1640 supplemented with 20% (v/v) heat-inactivated fetal bovine serum (FBS), 3% interleukin-2,2 mM L-glutairine, 25 mM HEPES, 2 μL, NAHCO, […] gentamicin, and 4 Ag/mL phytohemagglutinin prior to exposure to HIV-1 or other HIV strain. The cells were then infected with virus at a multiplicity of infection (MOI) of 0.1 during a one-hour adsorption period at 37° C. in a humidified 5% CO2 atmosphere. Subsequently, cells were cultured in 96-well microplates (100 μL/well; 2×10^6 cells/mL, triplicate wells) in the presence of various inhibitor concentrations. Aliquots of culture supernatants were removed from the wells on the 7 th day after infection for p24 antigen p24 enzyme immunoassays (EIA), as previously described in Erice et al., 1993, Antimicrob. Ag. Chemotherapy 37:385-838. The applied p24 EIA was the unmodified kinetic assay commercially available from Coulter Corporation/Immunotech, Inc. (Westbrook, Me.).
(§3) Percent inhibition of viral replication was calculated by comparing the p24 values from the test substance-treated infected cells with p24 values from untreated infected cells (i.e, virus controls). […]

Data set [3] relates to HIV-1 strain A17 variant (Y181C, K103N). The data set is described as follows: microbe, parasite or virus in culture. Format: cell-based. As to conditions: Human immunodeficiency virus 1, PBMC, read-out: IC50 A17 Varient (Y181C, K103N). As to the method:
as §1, §2
(§4) Percent inhibition of viral replication was calculated by comparing the p24 values from the test substance-treated infected cells with p24 values from untreated infected cells (i.e, virus controls).
(§5) RT-MDR was obtained through the AIDS Research and Reference Reagent Program, from Dr. Bendan Larder, and is described in Larder et al., 1993, Nature, 365, 451-453.

For data set [4], the system named is HIV-1 strain RT-MDR (V106A). The data set is described as follows: microbe, parasite or virus in culture. The format is cell-based. As to conditions: Human immunodeficiency virus 1, PBMC, read-out: IC50 RT-MDR (V106A). As to the method:
as §1, §2, §4, §5

A further data set deals with HIV-1 strain A17 (Y181C). The data set is described as follows: microbe, parasite or virus in culture. The format is cell-based. As to conditions: Human immunodeficiency virus 1, PBMC, read-out: IC50 A17 (Y181C). As to the method:
as §1, §2, §3

Data set [5] can be described thus: Microculture Tetrazolium Assay (MTA), cytotoxicity. Format: cell-based. As to conditions: XTT cytotoxicity; read-out: CC50 MTA. Here is the method:
A Microculture Tetrazolium Assay (MTA), using 2,3-bis(2-methoxy-4-nitro-5-sulfophenyl)-5-[(phenylamino)-carbonyl]-2H-tetrazolium hydroxide (XTT), was performed to evaluate the cytotoxicity of the compounds, using the methods described, for example, in Uckun et.al., 1998, Antimicrobial Agents and Chemotherapy 42:383; and Mao et.al., 1998, Bioorg. Med. Chem. Lett. 8:2213.
In general terms: Tetrazolium dyes change colour on reduction, which living cells bring about.

In data set [6] the test system is HIV-1 strain HTLVIIIB
As to conditions: earlier publication (Mao et al.), cited from earlier work.

For data set [7], the system named is NNI-resistant HIV-1 strains. As to conditions: earlier publication (Mao et al., 1999); cited from earlier work.

By IC50 is commonly meant the concentration that inhibits the measured activity by half. One may read the CC50 as the concentration giving 50% cytotoxicity.

With `S=C(NCCN1CCCCC1)Nc1ccc(Br)cn1` [HI-172, N-[2-(1-piperidinoethyl)]-N'-[2-(5-bromopyridyl)]thiourea], the IC50 in data set [1] was 0.6 µM; with HIV-1 strain HTLVIIIB [2], less than 0.001 µM; in data set [3], more than 100 µM; in data set [4] it was more than 100 µM; with HIV-1 strain A17 (Y181C) it was more than 100 µM. The CC50 in data set [5] is more than 100 µM. For the same compound, the “antiviral potency relative to trovirdine” value in the data set on HIV-1 strain HTLVIIIB [6] (HTLVIIIB) is “more potent than trovirdine”. The “abrogated the replication of HTLVIIIB” value in the data set on HIV-1 strain HTLVIIIB [6] (human PBMC) was “nanomolar concentrations”. Further, in data set [7], the “inhibition of replication of NNI-resistant HIV-1 strains” value is on record as “neither compound inhibited the replication”.
